Patent US20230331718A1, “COMPOSITIONS FOR MODULATING SPLICING” (Skyhawk Therapeutics, Inc., priority 2020, published 2023)

How the values were obtained:
[1] = test system: SMN2 Splicing D7 (SMN Δ7 transcript); experiment: SMN Quantitative Splicing Assay (qPCR); format: cell-based, human; conditions: 24 h, SMA patient fibroblasts (GM03813), 2.5 µM to 0.6 nM
Experimental: Spinal muscular atrophy (SMA) patient fibroblasts (GM03813, Coriell) were plated in 96-well plates at 50,000 cells/well. […] Treated cells were lysed and cDNA synthesized using the Fast Advanced Cells-to-Ct kit (Thermofisher A35378) according to the manufacturer’s instructions. 2 µL of each cDNA were used in qPCR reactions. […] Reactions were run in a Quant Studio 6 qPCR instrument with default settings.

SMN2 Protein = experiment: SMN Protein Assay (MSD); format: cell-based, human; conditions: SMA patient fibroblasts, 48 hours, 0.6 nM to 2.5 µM
Experimental: Spinal muscular atrophy (SMA) patient fibroblasts were plated in 96-well plates at 7,000 cells/well. Compounds were added in concentrations ranging from 0.6 nM to 2.5 µM, incubated for 48 hours and the cells were lysed with 100 µL of lysis buffer. 20 µL of lysate was used for SMN protein measurement by Mesoscale Discovery (MSD) assay developed by PharmOptima (Michigan). A standard curve prepared with SMN protein ranging from 1 µg/ml to 19.5pg/ml was used in each MSD plate to calculate the absolute SMN protein amount in each sample.

| Structure (SMILES) | IC50 ([1]; Homo sapiens, Fibroblast) | EC50 (SMN2 Protein) | IC50 [1] |
| --- | --- | --- | --- |
| Cc1nc2cc(-c3ncc(N(C)[C@H]4CC5CC[C@@H](N5)[C@H]4F)nn3)c(O)cc2c(=O)n1C [Compound 205] | 0.01 to 15 nM | 0.01 to 15 nM | – |
| CCn1ccc2cc(-c3ncc(N(C)C4CC5CCC(N5)[C@H]4F)nn3)c(O)cc2c1=O (stereo partly drawn) [Compound 34] | 0.01 to 15 nM | 0.01 to 15 nM | – |
| CCn1cc(F)c2cc(-c3ncc(N(C)[C@H]4CC5CC(F)(F)C(C4)N5)nn3)c(O)cc2c1=O (stereo partly drawn) [Compound 212] | 51 to 100 nM | 501 to 10000 nM | – |
| Cc1nc2cc(-c3ncc(N(C)[C@@H]4CC5CCC(N5)[C@@H]4F)nn3)c(O)cc2c(=O)n1C (stereo partly drawn) [Compound 213] | 16 to 50 nM | 0.01 to 15 nM | – |
| CN(c1cnc(-c2cc3ccn(C)c(=O)c3cc2O)nn1)[C@@H]1C[C@H]2CCC(N2)[C@@H]1F [Compound 7B] | 16 to 50 nM | 0.01 to 15 nM | – |
| CCC1C[C@@H](N(C)c2cnc(-c3cc4oc(C(F)(F)F)c(C)c(=O)c4cc3O)nn2)[C@@H](F)[C@H](C)N1 (stereo partly drawn) [Compound 79] | 101 to 500 nM | 16 to 50 nM | – |
| CN(c1cnc(-c2cc3cncnc3cc2O)nn1)C1CC2CCC(N2)[C@H]1F (stereo partly drawn) [Compound 26] | 51 to 100 nM | 16 to 50 nM | – |
| [2H]C([2H])([2H])N(c1cnc(-c2cc3c(F)cn(CC)c(=O)c3cc2O)nn1)[C@H]1C[C@@H]2CC[C@@H](N2)[C@H]1F [Compound 201] | 0.01 to 15 nM | 0.01 to 15 nM | – |
| Cc1cc2cc(O)c(-c3ncc(N(C)[C@H]4C[C@@H]5CCCC(N5)[C@H]4F)nn3)cc2cn1 [Compound 78] | 0.01 to 15 nM | 0.01 to 15 nM | – |
| CCn1cnc2cc(-c3ncc(N(C)[C@H]4CC5CCC[C@@H](N5)[C@H]4F)nn3)c(O)cc2c1=O [Compound 125] | 0.01 to 15 nM | 16 to 50 nM | – |
| CN(c1cnc(-c2cc3ncn(C)c(=O)c3cc2O)nn1)[C@H]1CC2CCC(N2)[C@H]1F (single isomer, unassigned) [Compound 3B] | 0.01 to 15 nM | 0.01 to 15 nM | – |
| CCn1ccc2cc(-c3ncc(N(C)C4CC5CCC(N5)[C@@H]4F)nn3)c(O)cc2c1=O (stereo partly drawn) [Compound 33] | 101 to 500 nM | 16 to 50 nM | – |
| Cc1cnc2cc(-c3ncc(N(C)[C@@H]4CC5CCCC(N5)[C@@H]4F)nn3)c(O)cc2n1 (stereo partly drawn) [Compound 105] | 101 to 500 nM | 16 to 50 nM | – |
| Cc1cc2cc(O)c(-c3ncc(N(C)[C@H]4CC5CCC(N5)[C@H]4F)nn3)cc2cn1 (stereo partly drawn) [Compound 46] | 0.01 to 15 nM | 0.01 to 15 nM | – |
| CN(c1cnc(-c2cc3c(=O)n(C)cnc3cc2O)nn1)C1CC2CCC(N2)[C@@H]1F (stereo partly drawn) [Compound 140] | 101 to 500 nM | 16 to 50 nM | – |
| CN(c1cnc(-c2cc3ncn(C)c(=O)c3cc2O)nn1)[C@H]1C[C@]2(C)COC[C@](C)(C1)N2 [Compound 150] | 0.01 to 15 nM | 0.01 to 15 nM | – |
| CN(c1cnc(-c2cc3occc(=O)c3cc2O)nn1)[C@@H]1C[C@@]2(C)CC[C@](C)(N2)[C@@H]1F [Compound 59] | 16 to 50 nM | 16 to 50 nM | – |
| CN(c1cnc(-c2cc3occc(=O)c3cc2O)nn1)[C@H]1C[C@@H]2CCCC(N2)[C@H]1F [Compound 63] | 16 to 50 nM | 0.01 to 15 nM | – |
| CN(c1cnc(-c2cc3cnccc3cc2O)nn1)[C@H]1C[C@@H]2CC[C@@H](N2)[C@H]1F (single isomer, unassigned) [Compound 5B] | 16 to 50 nM | 0.01 to 15 nM | – |
| CCn1ccc2cc(-c3ncc(N(C)C4CC5CCCC(N5)C4F)nn3)c(O)cc2c1=O (stereo not drawn) [Compound 122] | 51 to 100 nM | 501 to 10000 nM | – |
| Cc1cc(=O)c2cc(O)c(-c3ncc(N(C)[C@H]4CC5CC[C@@H](N5)[C@H]4F)nn3)cc2o1 (single isomer, unassigned) [Compound 6B] | 0.01 to 15 nM | 0.01 to 15 nM | – |
| CCn1c(C)nc2cc(-c3ncc(N(C)[C@@H]4CC5CC(F)(F)C(C4)N5)nn3)c(O)cc2c1=O (stereo partly drawn) [Compound 214] | 501 to 10000 nM | 501 to 10000 nM | – |
| Cc1cc(=O)c2cc(-c3ncc(N(C)[C@H]4C[C@@H]5CC[C@@H](N5)[C@H]4F)nn3)c(O)cc2o1 (single isomer, unassigned) [Compound 1B] | 16 to 50 nM | 0.01 to 15 nM | – |
| CN(c1cnc(-c2cc3ccn(C(F)F)c(=O)c3cc2O)nn1)[C@@H]1CC2CCC(N2)[C@@H]1F (stereo partly drawn) [Compound 156] | 16 to 50 nM | 0.01 to 15 nM | – |
| Cc1nc2cc(O)c(-c3ncc(N(C)[C@H]4C[C@]5(C)CC[C@@](C)(N5)[C@H]4F)nn3)cc2nc1C [Compound 87] | 0.01 to 15 nM | 0.01 to 15 nM | – |
| Cc1ncc2cc(O)c(-c3ncc(N(C)[C@H]4CC5CCC(N5)[C@H]4F)nn3)cc2n1 (stereo partly drawn) [Compound 40] | 16 to 50 nM | 0.01 to 15 nM | – |
| Cc1cc(=O)c2cc(-c3ncc(N(C)[C@@H]4C[C@H]5CC[C@H](N5)[C@@H]4F)nn3)c(O)cc2o1 (single isomer, unassigned) [Compound 1A] | 16 to 50 nM | 16 to 50 nM | – |

| Structure (SMILES) | IC50 ([1]; Homo sapiens, Fibroblast) | EC50 (SMN2 Protein) | IC50 [1] |
| --- | --- | --- | --- |
| CN(c1cnc(-c2cc3ccncc3cc2O)nn1)C1CC2CCC(N2)[C@H]1F (stereo partly drawn) [Compound 22] | 16 to 50 nM | 0.01 to 15 nM | – |
| CC(C)n1ncc2cc(-c3ncc(N(C)C4CC5CCC(N5)[C@@H]4F)nn3)c(O)cc2c1=O (stereo partly drawn) [Compound 29] | 501 to 10000 nM | 501 to 10000 nM | – |
| CCc1cc(=O)c2cc(-c3ncc(N(C)[C@@H]4C[C@H]5CCC(N5)[C@@H]4F)nn3)c(O)cc2o1 [Compound 117] | 51 to 100 nM | 16 to 50 nM | – |
| [2H]C([2H])([2H])N(c1cnc(-c2cc3ncn(C([2H])([2H])[2H])c(=O)c3cc2O)nn1)[C@H]1C[C@@H]2CCC(N2)[C@H]1F [Compound 175] | 0.01 to 15 nM | 0.01 to 15 nM | – |
| Cc1nc2cc(O)c(-c3ncc(N(C)[C@@H]4C[C@@]5(C)CC[C@](C)(N5)[C@@H]4F)nn3)cc2nc1C [Compound 88] | 16 to 50 nM | 51 to 100 nM | – |
| CN(c1cnc(-c2cc3occc(=O)c3cc2O)nn1)[C@H]1C[C@]2(C)CCC[C@@](C)(N2)[C@H]1F [Compound 64] | 0.01 to 15 nM | 0.01 to 15 nM | – |
| CCn1ncc2cc(-c3ncc(N(C)[C@@H]4CC5CC[C@H](N5)[C@@H]4F)nn3)c(O)cc2c1=O [Compound 164] | 51 to 100 nM | 16 to 50 nM | – |
| CN(c1cnc(-c2cc3ccn(C)c(=O)c3cc2O)nn1)[C@H]1CC2CCC(N2)[C@H]1F (single isomer, unassigned) [Compound 4B] | 0.01 to 15 nM | 0.01 to 15 nM | – |
| CN(c1cnc(-c2cc3occc(=O)c3cc2O)nn1)[C@H]1C[C@@H]2COCC(N2)[C@H]1F [Compound 68] | 101 to 500 nM | 501 to 10000 nM | – |
| CN(c1cnc(-c2cc3cnn(C)c(=O)c3cc2O)nn1)C1CC2CCCC(N2)C1F (stereo not drawn) [Compound 132] | – | 51 to 100 nM | 16 to 50 nM |
| CN(c1cnc(-c2cc3oc(C(F)(F)F)cc(=O)c3cc2O)nn1)[C@@H]1CC2CCCC(N2)[C@@H]1F (stereo partly drawn) [Compound 161] | 51 to 100 nM | 0.01 to 15 nM | – |
| Cc1nc2cc(O)c(-c3ncc(N(C)[C@H]4CC5CC[C@@H](N5)[C@H]4F)nn3)cc2nc1C [Compound 85] | 0.01 to 15 nM | 16 to 50 nM | – |
| CN(c1cnc(-c2cc3cncnc3cc2O)nn1)C1CC2CCC(N2)[C@@H]1F (stereo partly drawn) [Compound 25] | 101 to 500 nM | 501 to 10000 nM | – |
| CN(c1cnc(-c2cc3oc(C(F)(F)F)cc(=O)c3cc2O)nn1)[C@H]1C[C@@H]2CCCC(N2)[C@H]1F [Compound 166] | 16 to 50 nM | 0.01 to 15 nM | – |
| CCN1C=C(F)c2cc(-c3ncc(N(C)[C@@H]4CC5CCC(N5)[C@@H]4F)nn3)c(O)cc2O1 (stereo partly drawn) [Compound 162] | 51 to 100 nM | 0.01 to 15 nM | – |
| CN(c1cnc(-c2cc3ccn(C)c(=O)c3cc2O)nn1)C1CC2CC(F)(F)C(C1)N2 (stereo not drawn) [Compound 141] | – | 101 to 500 nM | 101 to 500 nM |
| Cc1cc2cc(-c3ncc(N(C)[C@H]4CC5CCCC(N5)[C@H]4F)nn3)c(O)cc2cn1 (stereo partly drawn) [Compound 48] | 0.01 to 15 nM | 0.01 to 15 nM | – |
| CN(c1cnc(-c2cc3ccn(C)c(=O)c3cc2O)nn1)[C@H]1CC2CC[C@@H](N2)[C@H]1F [Compound 7A] | 0.01 to 15 nM | 0.01 to 15 nM | – |
| CN(c1cnc(-c2cc3c(=O)ccoc3cc2O)nn1)[C@@H]1CC2CCCC(N2)[C@@H]1F (stereo partly drawn) [Compound 109] | 501 to 10000 nM | 501 to 10000 nM | – |
| CN(c1cnc(-c2cc3cnn(C)c(=O)c3cc2O)nn1)[C@H]1CC2CCC(N2)[C@H]1F (single isomer, unassigned) [Compound 2B] | 0.01 to 15 nM | 0.01 to 15 nM | – |
| CN(c1cnc(-c2cc3ncn(C(F)F)c(=O)c3cc2O)nn1)[C@@H]1C[C@H]2CCC(N2)[C@@H]1F [Compound 196] | 16 to 50 nM | 51 to 100 nM | – |
| CN(c1cnc(-c2cc3cccnc3cc2O)nn1)C1CC2CCC(N2)[C@H]1F (stereo partly drawn) [Compound 24] | 16 to 50 nM | 16 to 50 nM | – |
| CN(c1cnc(-c2cc3nccnc3cc2O)nn1)[C@@H]1CC2CC[C@H](N2)[C@@H]1F [Compound 57] | – | 16 to 50 nM | 101 to 500 nM |
| Cc1coc2cc(-c3ncc(N(C)[C@H]4CC5CCCC(N5)[C@H]4F)nn3)c(O)cc2c1=O (stereo partly drawn) [Compound 102] | 0.01 to 15 nM | 0.01 to 15 nM | – |
| CN(c1cnc(-c2cc3nccnc3cc2O)nn1)C1CC2CCC(N2)C1F (stereo not drawn) [Compound 20] | 16 to 50 nM | 16 to 50 nM | – |
| Cc1cnc2cc(-c3ncc(N(C)[C@H]4CC5CCCC(N5)[C@H]4F)nn3)c(O)cc2n1 (stereo partly drawn) [Compound 106] | 16 to 50 nM | 0.01 to 15 nM | – |
| CN(c1cnc(-c2cc3ncn(C)c(=O)c3cc2O)nn1)C1CC2CCCC(N2)C1F (stereo not drawn) [Compound 123] | 0.01 to 15 nM | 0.01 to 15 nM | – |
